Reference: ChEMBL document CHEMBL3046934, “Effectiveness of thiamethoxam and imidacloprid seed treatments against Bemisia tabaci (Hemiptera: Aleyrodidae) on cotton” (Pest Manag Sci, 2011)
Activity calls are given as the source filed them.

What was measured:
Bemisia tabaci [1] = assay: Insecticidal activity against adult Bemisia tabaci (sweet potato whitefly) infested cotton leaves assessed as increase in mortality at 0.342 mg ai/seed measured 10 to 40 days post germination under laboratory conditions relative to untreated control; type: functional, organism-based
Bemisia tabaci [2] = assay: Insecticidal activity against adult Bemisia tabaci (sweet potato whitefly) infested cotton leaves assessed as decrease in egg production at 0.342 mg ai/seed measured 10 to 40 days post germination under green house conditions relative to untreated control; type: functional, organism-based
Bemisia tabaci [3] = assay: Insecticidal activity against adult Bemisia tabaci (sweet potato whitefly) infested cotton leaves assessed as increase in mortality at 0.342 mg ai/seed measured 10 to 40 days post germination under green house conditions relative to untreated control; type: functional, organism-based
Bemisia tabaci [4] = assay: Insecticidal activity against adult Bemisia tabaci (sweet potato whitefly) infested cotton leaves assessed as decrease in egg deposition at 0.342 mg ai/seed measured 10 to 40 days post germination under laboratory conditions relative to untreated control; type: functional, organism-based
Bemisia tabaci [5] = assay: Insecticidal activity against nymph stage of Bemisia tabaci (sweet potato whitefly) infested cotton leaves assessed as increase in mortality at 0.342 mg ai/seed measured 10 to 40 days post germination under green house conditions relative to untreated control; type: functional, organism-based
Bemisia tabaci [6] = assay: Insecticidal activity against adult Bemisia tabaci (sweet potato whitefly) infested cotton leaves assessed as increase in mortality at 0.342 mg ai/seed measured 2 weeks post sowing to 9 weeks under field conditions relative to untreated control; type: functional, organism-based
Bemisia tabaci [7] = assay: Insecticidal activity against adult Bemisia tabaci (sweet potato whitefly) infested cotton leaves assessed as effect on laid eggs at 0.342 mg ai/seed measured 10 to 40 days post germination under laboratory conditions relative to untreated control; type: functional, organism-based
Cotyledon [8] = assay: Drug uptake in Gossypium hirsutum (cotton) cotyledon at 0.342 mg ai/seed measured 10 days post germination under green house conditions; type: ADME; conditions: in vivo, other, 240 h
Bemisia tabaci [9] = assay: Insecticidal activity against nymph stage of Bemisia tabaci (sweet potato whitefly) infested cotton leaves assessed as increase in mortality at 0.342 mg ai/seed measured 10 to 40 days post germination under laboratory conditions relative to untreated control; type: functional, organism-based
Leaf [10] = assay: Drug uptake in Gossypium hirsutum (cotton) leaf at 0.342 mg ai/seed measured 10 days post germination under green house conditions; type: ADME; conditions: in vivo, other, 240 h
Bemisia tabaci [11] = assay: Insecticidal activity against nymph stage of Bemisia tabaci (sweet potato whitefly) infested cotton leaves assessed as increase in mortality at 0.342 mg ai/seed measured 2 weeks post sowing to 9 weeks under field conditions relative to untreated control; type: functional, organism-based
Bemisia tabaci [12] = assay: Insecticidal activity against adult Bemisia tabaci (sweet potato whitefly) infested cotton leaves assessed as increase in mortality at 0.375 mg ai/seed measured 10 to 40 days post germination under laboratory conditions relative to untreated control; type: functional, organism-based
Bemisia tabaci [13] = assay: Insecticidal activity against adult Bemisia tabaci (sweet potato whitefly) infested cotton leaves assessed as decrease in egg deposition at 0.375 mg ai/seed measured 10 to 40 days post germination under laboratory conditions relative to untreated control; type: functional, organism-based
Bemisia tabaci [14] = assay: Insecticidal activity against nymph stage of Bemisia tabaci (sweet potato whitefly) infested cotton leaves assessed as increase in mortality at 0.375 mg ai/seed measured 10 to 40 days post germination under green house conditions relative to untreated control; type: functional, organism-based
Bemisia tabaci [15] = assay: Insecticidal activity against adult Bemisia tabaci (sweet potato whitefly) infested cotton leaves assessed as decrease in egg production at 0.375 mg ai/seed measured 10 to 40 days post germination under green house conditions relative to untreated control; type: functional, organism-based
Bemisia tabaci [16] = assay: Insecticidal activity against adult Bemisia tabaci (sweet potato whitefly) infested cotton leaves assessed as increase in mortality at 0.375 mg ai/seed measured 2 weeks post sowing to 9 weeks under field conditions relative to untreated control; type: functional, organism-based
Bemisia tabaci [17] = assay: Insecticidal activity against adult Bemisia tabaci (sweet potato whitefly) infested cotton leaves assessed as increase in mortality at 0.375 mg ai/seed measured 10 to 40 days post germination under green house conditions relative to untreated control; type: functional, organism-based
Bemisia tabaci [18] = assay: Insecticidal activity against adult Bemisia tabaci (sweet potato whitefly) infested cotton leaves assessed as effect on laid eggs at 0.375 mg ai/seed measured 10 to 40 days post germination under laboratory conditions relative to untreated control; type: functional, organism-based
Bemisia tabaci [19] = assay: Insecticidal activity against nymph stage of Bemisia tabaci (sweet potato whitefly) infested cotton leaves assessed as mortality at 0.375 mg ai/seed measured 10 to 40 days post germination under laboratory conditions relative to untreated control; type: functional, organism-based
Bemisia tabaci [20] = assay: Insecticidal activity against nymph stage of Bemisia tabaci (sweet potato whitefly) infested cotton leaves assessed as increase in mortality at 0.375 mg ai/seed measured 2 weeks post sowing to 9 weeks under field conditions relative to untreated control; type: functional, organism-based
Leaf [21] = assay: Drug uptake in Gossypium hirsutum (cotton) leaf at 0.375 mg ai/seed measured 10 days post germination under green house conditions; type: ADME; conditions: in vivo, other, 240 h
Cotyledon [22] = assay: Drug uptake in Gossypium hirsutum (cotton) cotyledon at 0.375 mg ai/seed measured 10 days post germination under green house conditions; type: ADME; conditions: in vivo, other, 240 h

CN1COCN(Cc2cnc(Cl)s2)/C1=N\[N+](=O)[O-] [THIAMETHOXAM]
Active: Drug uptake (Cotyledon [8]) | Drug uptake (Leaf [10])
active: Activity (Bemisia tabaci [1]) | Activity (Bemisia tabaci [2]) | Activity (Bemisia tabaci [3]) | Activity (Bemisia tabaci [4]) | Activity (Bemisia tabaci [5]) | Activity (Bemisia tabaci [6]) | Activity (Bemisia tabaci [9]) | Activity (Bemisia tabaci [11])
inactive: Activity (Bemisia tabaci [7])

O=[N+]([O-])/N=C1\NCCN1Cc1ccc(Cl)nc1
active: Activity (Bemisia tabaci [12]) | Activity (Bemisia tabaci [13]) | Activity (Bemisia tabaci [14]) | Activity (Bemisia tabaci [15]) | Activity (Bemisia tabaci [16]) | Activity (Bemisia tabaci [17]) | Activity (Bemisia tabaci [19]) | Activity (Bemisia tabaci [20])
inactive: Activity (Bemisia tabaci [18])

O=[N+]([O-])NC1=NCCN1Cc1ccc(Cl)nc1 [IMIDACLOPRID]
Active: Drug uptake (Leaf [21]) | Drug uptake (Cotyledon [22])
